Data from patent US10369113B2, “Prostate specific membrane antigen (PSMA) targeted nanoparticles for therapy of prostate cancer” (The Johns Hopkins University, priority 2007, dated 2019).

System: PSMA-expressing LNCaP human prostate cancer cells
Assay: In vitro toxicity of nanoparticles (MTT assay after 15 min exposure)
Assay type: cell-based
Conditions: 48 hrs after 15 min exposure, 100 nM docetaxel equivalent, read-out: inhibition of cell growth
Method: The cytotoxicity of the nontargeted particles in that study was ascribed to a combination of nonspecific uptake and to the expected nonspecific release of docetaxel from the particle into the media over the exposure period. […] Following determination of the amount of docetaxel loading in the particles, PSMA-expressing LNCaP human prostate cancer cells were exposed to equimolar amounts (i.e. 100 nM) of loaded nanoparticles or free docetaxel. To minimize the effects of nonspecific endocytosis, cells were only exposed to test compounds for 15 min at which time cells were washed and then placed in drug free media. Cell counts were determined by converting absorbance from MTT assay to cell number based on a standard curve of absorbance from MTT assay of known amounts of LNCaP cells. In this assay, 48 hrs following exposure, the growth of cells exposed to the nontargeted nanoPEG particles was inhibited by 65% while cell growth was inhibited 89% by docetaxel and 95% by the nanoPSMAi2 particles. […]
Cytotoxicity assays were performed as described previously (Denmeade, S. R., et al. J Natl Cancer Inst, 95: 990-1000, 2003). […] Cells were then incubated in media at 37° C. and at the end of 48 hours and 96 hours, effects on cell growth were determined using the MTT assay (Promega, WI) according to manufacturer's instructions.

CC(=O)O[C@@]12CO[C@@H]1C[C@H](O)[C@@]1(C)C(=O)[C@H](O)C3=C(C)[C@@H](OC(=O)[C@H](O)[C@@H](NC(=O)OC(C)(C)C)c4ccccc4)C[C@@](O)([C@@H](OC(=O)c4ccccc4)[C@H]21)C3(C)C [docetaxel] showed an inhibition at 0.1 µM of 89%.
